Data on two sequences can be found in patent US20050003546A1, “Viral uptake into cells and tissues” (Yale University, priority 2001, published 2005).

One test relates to COS-7 cells. Briefly: Ad-GFP adenovirus infection of COS-7 cells (Western blot, fluorescence microscopy, flow cytometry). In kind it is cell-based. On the procedure:
(§1) Adenoviruses (1 m.o.i. or approximately 1×10^6 pfu per 60 mm dish) were pre-complexed with the peptides (0.05 to 5 mM) in 100 μl of serum free media (OptiMEM; Gibco, Grand Island, N.Y.) for 30 min at room temperature. Cells (COS-7 or BAEC) were grown on 60 mm dishes until 90% confluent and media was changed to serum free (2 ml) before exposure to the adenovirus complex. The complex (100 μl) was added to the cells for 4 hrs and then the cells were washed and changed to complete growth media for 24 to 48 hours.
(§2) Western blotting was performed as described previously (16). Briefly, cells were lysed (50 mM Tris-HCl, 0.1 mM EDTA, 0.1 mM EGTA, 1% (v/v) Nonidet P-40, 0.1% SDS, 0.1% deoxycholic acid, 1 mM Pefabloc, 10 μg/ml aprotinin, and 10 μg/ml leupeptin) for 1 hr at 4° C. and the soluble material was separated on a 10% SDS-PAGE, and transferred to a nitrocellulose membrane. Blocked membranes were probed using the specific polyclonal anti-GFP (Clontech, Palo Alto, Calif.) or the monoclonal anti-hsp90(Stressgen, Victoria, Canada) antibodies. After washing and incubating with secondary antibodies, immunoreactive proteins were visualized by ECL detection system (Amersham, Buckinghamshire, UK).
Live cells infected with Ad-GFP were washed with serum free media and visualized using a Zeiss Axiovert 200 microscope under phase contrast or GFP filters (excitation 450 nm, emission 510 nm). Images were captured using the Openlab Imaging software (Improvision, Lexington, Mass.). Flow cytometric analysis of GFP expressing cells was performed 48 h after following infection. Cells were trypsinized, PBS washed and fixed in 70% ethanol at 4° C. Cells were resuspended in PBS and were analyzed by gating for GFP fluorescence by flow cytometry using a FACSort (Becton Dickinson, San Jose, Calif.).
For orientation: In western blotting, separated proteins are transferred to a membrane and probed.

In test [1] the test system is bovine aortic endothelial cells (BAEC). Briefly: Ad-GFP adenovirus infection of bovine aortic endothelial cells (Western blot). As to conditions: AP/Ad-GFP complex. The format is cell-based. The method, then:
as §1, §2

Test [2] has as its system human umbilical vascular endothelial cells (HUVEC). Put plainly: Ret-GFP retrovirus infection of HUVEC (Western blot, fluorescence microscopy). The format is cell-based. On the procedure: For retroviral infections supernatant from phoenix retroviral packaging cell line expressing […] was incubated for 30 min at 37 C in presence of AP (0.1-0.5 mM). HUVEC cells were exposed to the mixture for 24 hrs and then harvested.
as §2
Live cells infected with Ad-GFP were washed with serum free media and visualized using a Zeiss Axiovert 200 microscope under phase contrast or GFP filters (excitation 450 nm, emission 510 nm). Images were captured using the Openlab Imaging software (Improvision, Lexington, Mass.). […] Cells were resuspended in PBS and were analyzed by gating for GFP fluorescence by flow cytometry using a FACSort (Becton Dickinson, San Jose, Calif.).

Test [3] relates to mouse carotid artery endothelium. Briefly: Endothelium specific gene transfer of mouse carotid arteries ex vivo (Ad-GFP, Ad-β-gal). The method, then: (§3) The common carotid artery was cannulated, flushed with a small amount (˜3 μl) of virus and tied off proximally. Approximately 3 μl of Ad-β-gal (1×10^9 pfu/ml), Ad-GFP (1×10^9 pfu/ml), Ad-eNOS (5×10^10 pfu/ml) virus or virus complexed with AP (10 μM) for 30 min at room temperature was injected. The virus-filled vessel was incubated in situ at 37° C. for 2 hours and then rinsed in saline prior to overnight (18 hours) incubation in complete DMEM at 37° C., 5% CO2. Control vessels were filled with viral storage buffer and treated in an identical manner.
(§4) -galactosidase expression was monitored by either X-Gal staining or activity 4 days after virus administration as described previously (14,18).

A further test relates to adductor muscle. Put plainly: Intramuscular Ad-β-gal reporter virus injection into mouse adductor muscle. The format is in vivo. As to conditions: Ad-β-gal 5×10^7 pfU in 25 μl, three sites, pre-complexed with AP 10 μM. On the procedure: as §4
(§5) Ischemic hind limb model was performed as described previously (19). Briefly, following anesthesia, the left femoral artery was exposed under a dissection microscope. The proximal end of the femoral artery and the distal portion of the saphenous artery were ligated. All branches between these two sites were cauterized, and arteriectomy was performed. Following arteriectomy, 25 μl of either virus storage buffer, Ad-VEGF (5.5×10^7 pfu), Ad- -ga l (2.5×10^7 pfu), pre-complexed with AP (30 min room temperature; 10 μM) or AP alone (at least 5 animals per group) was injected into the adductor muscle at 3 different sites. Mice were sacrificed 21 days following surgery and muscles of the lower limbs were harvested, methanol fixed and paraffm embedded. Tissue sections (5 μm thick) were stained using an anti-CD31 antibody (Pharmingen, San Diego, Calif.), and hematoxylin counter stained. Pictures from 4 random areas of each section, and 3 sections per mice were taken using a Kodak digital camera mounted on a light microscope (40× objective). Capillary density was quantified by measuring the percentage of CD31 positive area out of total area using the Matlab software (The Math Works, Inc.).

The test system of test [4] is carotid arteries from eNOS -/- mice. Put plainly: Isometric studies: acetylcholine-induced relaxation of eNOS -/- carotid arteries transduced with Ad-eNOS. The arrangement: species or system mouse. As to conditions: carotid arteries of eNOS (-/-) mice luminally transduced with Ad-eNOS, without or pre-complexed with AP. The method, then:
as §3
Rings of carotid artery were studied as described previously (17). To assess endothelial function, vessels were precontracted with a submaximal (˜80%) concentration of PGF2α (5×10^−6 mol/L) prior to application of endothelium-dependent dilator acetylcholine (10^−10−3×10^−6 mol/L).

The test system of test [5] is bovine aortic endothelial cells (BAEC). Put plainly: Nitric oxide release from BAEC infected with Ad-eNOS or Ad-GFP. In kind it is cell-based. On the procedure:
as §1
Basal NO2^− release from BAEC, a stable metabolite of NO, was assessed in the medium as described (9). In all experiments, release was attenuated by a NOS inhibitor.

Test [6] relates to vascular permeability in mouse ear. Put plainly: Permeability assay: Evans blue leakage in mouse ear after intradermal Ad-VEGF. The format is in vivo. The method, then: Ad-VEGF (5.5×10^7 pfu) or Ad-β-gal (2.5×10^7 pfu) with or without AP complex (10 μM; 30 minutes at room temperature) was injected intradermally into the ear of CD1 mouse. Evans blue leakage was monitored 4 days after infection as described previously (9).

Test [7] deals with blood vessels of the lower limbs (PECAM/CD31 positive area). Briefly: Ischemic hind limb angiogenesis assay with intramuscular Ad-VEGF. As to conditions: intramuscular Ad-VEGF 5.5×10^7 pfu in presence of AP, hind limb ischemia. In kind it is in vivo, mouse. The method, then: as §5

For RQIKIWFQNRRMKWKK [AP], in the test with COS-7 cells (AP 0.05 to 5.0 mM pre-incubated 30 min with Ad-GFP 1 m.o.i., diluted 20 fold into medium, COS-7), the “expression of GFP (western blotting)” value is listed as “dose-dependently improved”. For the same sequence, in the test on COS-7 cells (Ad-GFP 1 m.o.i. pre-complexed with AP vs Ad-GFP alone, COS-7), the “increase in cells strongly positive for GFP (M2), flow cytometry” value is on record as about 10 fold. The “numbers of GFP positive cells (fluorescent microscopy) compared to virus alone” value with COS-7 cells (Ad-GFP pre-incubated with 0.5 mM AP, COS-7) is listed as “increased numbers”. The “GFP expression when cells exposed to AP prior to or after Ad-GFP infection (no pre-complex step)” value in the test with COS-7 cells (COS-7, Ad-GFP) is “did not yield an increase”. In addition, the “GFP expression levels (western blotting) compared to Ad-GFP alone” value in [1] is “marked increase”. Further, the “GFP expression (western blot)” value in test [2] (AP 0.05-0.5 mM added to Ret-GFP viral supernatant (approximately 10^6-10^7 pfu/ml)) was “dose-dependently enhanced”. In addition, the “GFP positive cells (fluorescence microscopy)” value in [2] (AP/Ret-GFP complex) is on record as “substantial increase”. In test [3] (Ad-GFP 10^9 pfu/ml pre-complexed with AP 10 μM, luminal, ex vivo), the “infectivity of the Ad-GFP virus (en face fluorescence imaging)” value is “markedly improved”. In addition, the “X-Gal staining in the endothelial cell layer (tissue cross section)” value in [3] (Ad-β-gal 10^9 pfu/ml, AP pre-treatment, ex vivo) was “increased staining”. Moreover, the “β-galactosidase activity increase over Ad-β-gal infection alone” value in [3] (carotid arteries treated with AP/Ad-β-gal complex) is recorded as “two”. Also, in the test on adductor muscle, the “staining for β-galactosidase activity in adductor muscle” value is recorded as “increased”. The “endothelium dependent dilation in response to acetylcholine (Ach)” value in test [4] is recorded as “improved”. Further, the “Ad-eNOS mediated NO release from cultured endothelial cells” value in test [5] (1 m.o.i. of eNOS virus in absence or presence of AP) is “improves”. Also, the “NO release with control virus Ad-GFP” value in [5] (Ad-GFP 1 m.o.i. in absence or presence of AP) was “does not influence”. In addition, the “increase of basal vascular permeability over Ad-VEGF alone” value in [6] (AP complexed with Ad-VEGF, mouse ear) is recorded as 2.5 fold. Also, the “ability of VEGF to promote vascular leak (extravasation of Evans blue)” value in test [6] (Ad-VEGF 5.5×10^7 pfu with AP, intradermal, 4 days) is listed as “significantly enhanced”. Besides, in test [7], the “PECAM positive vessels compared to Ad-VEGF alone” value was over 4 fold.

On to “GRKKRRQRRRPPQ (Human immunodeficiency virus) [Tat peptide, synthetic peptide, HIV Tat amino acids 48-60]”, for which, in the test on COS-7 cells (Tat peptide 0.1 and 0.5 mM, COS-7), the “increasing Ad-GFP infection (GFP western blot), compared with AP” value was “as efficient as AP”.
